Data on 4 compounds can be found in patent US10676462B2, “Quinoline derivative” (ONO PHARMACEUTICAL CO., LTD., priority 2013, dated 2020).

The target of experiment [1] is KDR (Homo sapiens, UniProt P35968). The experiment is described as follows: Evaluation of kinase selectivity (in vitro test), KDR. Particulars: Axl selective inhibitory activity with respect to KDR, ratio of IC50 values. Format: biochemical. The method, then:
Biological Example 3: Evaluation of Kinase Selectivity (In Vitro Test)
Similar to Biological Example 1, values of 50% inhibition rate (IC50 value) with respect to various kinases (KDR, DDR1, FLT4, and ROS) of the test compound were measured. The Axl selective inhibitory activity of the test compound with respect to kinases, for example, KDR, was calculated based on the above-mentioned ratio of the IC50 values. As the test compound, for the compound of the present invention, the compounds of Examples 5, 5(1), 17(2), and 23(2) were used, and for the comparative compounds, the compound of Example 5 (Comparative compound C) and the compound of Example 92 (Comparative compound D) described in Patent Literature 5, having the following structure, were used.

In experiment [2] the target is T1, Human CYP2C8 (Homo sapiens, UniProt P10632).
T1 construct: E. coli-expressed liver microsome CYP2C8 (Cypex, 30 μmol/L); purchased Cypex; host or cells: E. coli
T1 sequence (P10632 1-490): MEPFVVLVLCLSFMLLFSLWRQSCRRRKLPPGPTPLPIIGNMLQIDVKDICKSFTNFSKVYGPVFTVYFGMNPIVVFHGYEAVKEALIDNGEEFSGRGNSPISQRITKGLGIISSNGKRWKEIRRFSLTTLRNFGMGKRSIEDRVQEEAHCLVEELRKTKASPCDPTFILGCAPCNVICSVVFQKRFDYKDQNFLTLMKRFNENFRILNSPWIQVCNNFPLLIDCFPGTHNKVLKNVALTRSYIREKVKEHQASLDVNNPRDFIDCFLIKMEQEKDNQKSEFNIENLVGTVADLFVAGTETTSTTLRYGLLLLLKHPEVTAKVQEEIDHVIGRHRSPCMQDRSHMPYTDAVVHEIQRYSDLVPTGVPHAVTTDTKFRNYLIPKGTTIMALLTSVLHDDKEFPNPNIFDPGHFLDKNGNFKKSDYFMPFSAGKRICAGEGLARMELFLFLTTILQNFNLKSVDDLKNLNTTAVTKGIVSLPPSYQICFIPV
The experiment in a line: Inhibitory activity of drug-metabolizing enzyme (human CYP2C8 inhibition effect). Particulars: E. coli-expressed CYP2C8, substrate Luciferin-ME, from inhibition rates at 1 and 10 μmol/L. In kind it is in vitro ADME. The protocol: Biological Example 4: Measurement of Inhibitory Activity of Drug-Metabolizing Enzyme (Human CYP2C8 Inhibition Effect)
The reaction was carried out in a 384-well plate. As the positive control substance (CYP2C8: quercetin), a solution, which had been adjusted with DMSO to have 300 times higher concentration than the final concentration (CYP2C8: 22.5 and 225 μmol/L) and been 75-fold diluted with purified water containing 2.7% acetonitrile, was prepared (CYP2C8: 0.3 and 3 μmol/L). The test compounds were prepared to have a concentration of […] with DMSO, and then 75-fold diluted with purified water containing 2.7% acetonitrile to be 4 and 40 μmol/L. Then, a reaction mixture solution was prepared by addition of a potassium phosphate buffer (pH 7.4), magnesium chloride ([…]), substrate (CYP2C8: Luciferin-ME, 150 μmol/L), and E. coli-expressed liver microsome CYP2C8 (Cypex, 30 μmol/L) (the numerical values are final concentrations). The reaction was started by addition of 8 μL of this reaction mixture, 4 μL each of the test compound and the positive control solution which had been prepared as described above, and 4 μL of NADPH production system solution (5.2 mM NADP, 13.2 mM glucose-6-phosphate, 1.6 U/mL glucose-6-phosphate dehydrogenase) and incubation was carried out at 37° C. for 30 min. Thereafter, 16 μL of luciferase solution was added to stop the reaction and to allow luciferin to emit light, and the luminescence intensity of the reaction solution was measured. The inhibition rate is a reduction rate (inhibition rate) of the luminescence intensity when compared with the control in which the reaction was carried out by the addition of DMSO in place of the test compound solution. The inhibition rate was calculated from the following mathematical formula. Inhibition rate (%)=100−{(luminescence intensity of test compound−background luminescence intensity)/(luminescence intensity of control−background luminescence intensity)×100} [Math. 3]
The IC50 value was defined to be <1 μM when the inhibition rate at 1 μmol/L was not less than 50%; and >10 μM when the inhibition rate at 10 μmol/L was not more than 50%. The range between the above-mentioned range (not more than 50% at 1 μmol/L and not less than 50% at 10 μmol/L) was calculated using the following mathematical formula: IC50=(50−b)/a [Math.4] wherein a and b are the slope and intercept of the linear regression line: y=ax+b that passes through the two points: the concentration and the inhibition rate at 1 μmol/L and the concentration and the inhibition rate at 10 μmol/L.
The IC50 values of the comparative compounds and compounds of the present invention were measured using the measurement method described above.

Chain of KDR (P35968 20-1356): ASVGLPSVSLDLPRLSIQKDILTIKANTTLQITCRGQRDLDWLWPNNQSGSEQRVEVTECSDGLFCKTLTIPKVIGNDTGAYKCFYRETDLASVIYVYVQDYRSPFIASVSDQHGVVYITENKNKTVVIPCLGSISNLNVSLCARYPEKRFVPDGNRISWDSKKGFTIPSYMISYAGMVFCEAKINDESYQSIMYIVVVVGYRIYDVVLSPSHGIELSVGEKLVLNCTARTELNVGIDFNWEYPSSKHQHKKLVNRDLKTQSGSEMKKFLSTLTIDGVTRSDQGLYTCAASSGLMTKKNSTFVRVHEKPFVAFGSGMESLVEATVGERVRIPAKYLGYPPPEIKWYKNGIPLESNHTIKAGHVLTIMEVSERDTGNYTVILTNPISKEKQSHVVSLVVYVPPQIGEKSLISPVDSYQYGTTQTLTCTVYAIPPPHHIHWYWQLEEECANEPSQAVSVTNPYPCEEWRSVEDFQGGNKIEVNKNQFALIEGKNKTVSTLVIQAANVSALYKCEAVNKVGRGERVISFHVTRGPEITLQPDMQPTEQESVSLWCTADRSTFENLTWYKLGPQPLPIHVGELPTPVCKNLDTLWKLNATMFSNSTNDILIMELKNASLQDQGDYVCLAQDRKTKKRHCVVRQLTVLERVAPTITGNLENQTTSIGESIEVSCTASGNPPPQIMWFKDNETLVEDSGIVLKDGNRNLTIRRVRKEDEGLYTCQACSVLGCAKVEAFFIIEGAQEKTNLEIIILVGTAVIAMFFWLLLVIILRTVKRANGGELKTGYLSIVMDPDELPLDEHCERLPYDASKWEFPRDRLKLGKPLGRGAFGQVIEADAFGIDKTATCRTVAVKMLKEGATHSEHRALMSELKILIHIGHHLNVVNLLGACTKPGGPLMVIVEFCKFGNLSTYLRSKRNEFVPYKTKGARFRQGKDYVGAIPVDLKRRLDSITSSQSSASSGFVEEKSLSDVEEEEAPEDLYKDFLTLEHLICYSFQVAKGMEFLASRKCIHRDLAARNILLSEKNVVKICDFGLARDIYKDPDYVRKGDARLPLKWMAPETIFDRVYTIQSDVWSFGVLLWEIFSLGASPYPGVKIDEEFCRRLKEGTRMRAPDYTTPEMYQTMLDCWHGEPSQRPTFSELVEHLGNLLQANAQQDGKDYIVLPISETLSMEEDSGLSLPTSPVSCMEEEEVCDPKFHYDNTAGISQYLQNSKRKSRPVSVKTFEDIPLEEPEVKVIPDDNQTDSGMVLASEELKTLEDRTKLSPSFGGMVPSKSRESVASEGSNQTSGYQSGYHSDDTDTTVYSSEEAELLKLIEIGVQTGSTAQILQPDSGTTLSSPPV

As usually defined, the IC50 is the concentration that inhibits the measured activity by half. Read a low IC50 as inhibition by little substance. For the compound `COc1cc2nccc(Oc3ccc(NC(=O)c4cc5c(n(-c6ccccc6)c4=O)CC(C)(C)CC5=O)nc3)c2cc1OC` [Example 5(1), N-{5-[(6,7-dimethoxy-4-quinolinyl)oxy]-2-pyridinyl}-7,7-dimethyl-2,5-dioxo-1-phenyl-1,2,5,6,7,8-hexahydro-3-quinolinecarboxamide], the “KDR [IC50]/Axl [IC50]” value in experiment [1] is given as “about 1800 times”. This compound showed a concentration for half-maximal inhibition (IC50) in experiment [2] of over 10 µM.
The matching figures for `COc1cc2nccc(Oc3ccc(NC(=O)c4cc5c(n(-c6ccccc6)c4=O)CCCC5=O)nc3)c2cc1OC` [Example 5, N-{5-[(6,7-dimethoxy-4-quinolinyl)oxy]-2-pyridinyl}-2,5-dioxo-1-phenyl-1,2,5,6,7,8-hexahydro-3-quinolinecarboxamide]: “about 900 times” and over 10 µM.
The matching figures for `O=C1CCCc2c1cc(C(=O)Nc1ccc(Oc3ccnc4cc(OCCCN5CCOCC5)ccc34)cn1)c(=O)n2-c1ccccc1` [Example 17(2), N-[5-({7-[3-(4-morpholinyl)propoxy]-4-quinolinyl}oxy)-2-pyridinyl]2,5-dioxo-1-phenyl-1,2,5,6,7,8-hexahydro-3-quinolinecarboxamide]: “about 650 times” and over 10 µM.
Take `COc1cc2nccc(Oc3ccc(NC(=O)c4cc5c(n(-c6ccccc6)c4=O)CCCC5=O)c(C)c3)c2cc1OC` [Example 23(2), N-{4-[(6,7-dimethoxy-4-quinolinyl)oxy]-2-methylphenyl}-2,5-dioxo-1-phenyl-1,2,5,6,7,8-hexahydro-3-quinolinecarboxamide]: the “KDR [IC50]/Axl [IC50]” value in experiment [1] is “about 520 times”. The IC50 in experiment [2] is over 10 µM.
